Results on twelve molecules are retold here after patent US11396502B2, “Substituted heterocyclic derivatives as PI3K inhibitors” (Incyte Corporation, priority 2018, dated 2022).

The target of one assay is PI3Kγ (p110γ) (Homo sapiens (Human), UniProt P48736). The assay can be described thus: PI3K-γ scintillation proximity assay. The assay is classed as biochemical. Conditions: recombinant human PI3Kγ 13 nM, 20 μM PIP2, 2 μM ATP, 120 min, room temperature. From the text: Example B. PI3K-γ Scintillation Proximity Assay Materials: [γ-^33P]ATP (10 mCi/mL) and Wheat Germ Agglutinin (WGA) YSi SPA Scintillation Beads was purchased from Perkin Elmer (Waltham, Mass.). Lipid kinase substrate, D-myo-Phosphatidylinositol 4,5-bisphosphate (PtdIns(4,5)P2)D (+)-sn-1,2-di-O-octanoylglyceryl, 3-O-phospho linked (PIP2), CAS 204858-53-7, was purchased from Echelon Biosciences (Salt Lake City, Utah). PI3Kγ (p110γ) Recombinant Human Protein was purchased from Life technology (Grand Island, N.Y.). ATP, MgCl2, DTT, EDTA, MOPS and CHAPS were purchased from Sigma Aldrich (St. Louis, Mo.). The kinase reaction was conducted in polystyrene 384-well Greiner Bio-one white plate from Thermo Fisher Scientific in a final volume of 25 μL. Inhibitors were first diluted serially in DMSO and added to the plate wells before the addition of other reaction components. The final concentration of DMSO in the assay was 2%. The PI3Kγ assay was carried out at room temperature in 20 mM MOPS, pH 6.7, 10 mM MgCl2, 5 mM DTT and CHAPS 0.03%. Reactions were initiated by the addition of ATP, the final reaction mixture consisted of 20 μM PIP2, 2 μM ATP, 0.5 μCi [γ-^33P] ATP, 13 nM PI3Kγ. Reactions were incubated for 120 min and terminated by the addition of 40 μL SPA beads suspended in quench buffer: 163 mM potassium phosphate pH 7.8, 20% glycerol, 25 mM EDTA. The final concentration of SPA beads is 1.0 mg/mL. After the plate sealing, plates were shaken overnight at room temperature and centrifuged at 1500 rpm for 10 min, the radioactivity of the product was determined by scintillation counting on Topcount (Perkin-Elmer). IC50 determination was performed by fitting the curve of percent of the solvent control activity versus the log of the inhibitor concentration using the GraphPad Prism 6.0 software.
Sequence of PI3Kγ (p110γ) (P48736 whole entry): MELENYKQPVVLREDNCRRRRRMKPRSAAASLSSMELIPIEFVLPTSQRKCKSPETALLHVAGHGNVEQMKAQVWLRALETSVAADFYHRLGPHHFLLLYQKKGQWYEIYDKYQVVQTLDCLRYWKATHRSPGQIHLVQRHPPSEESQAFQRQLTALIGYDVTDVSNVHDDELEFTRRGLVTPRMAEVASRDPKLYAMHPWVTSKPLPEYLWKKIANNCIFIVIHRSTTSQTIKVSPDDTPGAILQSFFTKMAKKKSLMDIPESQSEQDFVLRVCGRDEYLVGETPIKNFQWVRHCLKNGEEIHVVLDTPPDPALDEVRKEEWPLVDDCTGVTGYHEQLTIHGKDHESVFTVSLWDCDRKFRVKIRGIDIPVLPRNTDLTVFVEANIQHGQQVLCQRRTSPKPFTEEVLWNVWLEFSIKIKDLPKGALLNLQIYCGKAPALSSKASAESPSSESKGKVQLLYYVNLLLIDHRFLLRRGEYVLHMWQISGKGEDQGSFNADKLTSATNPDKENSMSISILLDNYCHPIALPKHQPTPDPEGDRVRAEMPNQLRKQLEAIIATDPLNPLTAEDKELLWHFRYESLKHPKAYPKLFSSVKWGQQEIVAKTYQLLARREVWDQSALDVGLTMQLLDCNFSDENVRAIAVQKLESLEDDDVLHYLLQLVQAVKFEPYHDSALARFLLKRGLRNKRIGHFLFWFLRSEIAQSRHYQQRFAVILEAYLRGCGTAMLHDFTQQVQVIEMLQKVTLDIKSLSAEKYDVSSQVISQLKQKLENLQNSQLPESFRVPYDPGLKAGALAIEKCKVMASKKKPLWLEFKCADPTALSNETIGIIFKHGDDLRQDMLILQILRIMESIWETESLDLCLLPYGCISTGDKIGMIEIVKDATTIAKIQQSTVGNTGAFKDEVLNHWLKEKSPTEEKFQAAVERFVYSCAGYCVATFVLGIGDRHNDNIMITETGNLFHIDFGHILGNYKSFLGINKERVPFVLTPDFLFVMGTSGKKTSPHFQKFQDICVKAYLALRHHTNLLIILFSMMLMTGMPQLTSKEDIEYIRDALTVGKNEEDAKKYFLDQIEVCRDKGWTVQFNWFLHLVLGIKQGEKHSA
Background: SPA uses beads or plates that emit light when radiolabelled molecules are held near them.

A further assay concerns the target PI3Kδ (p110δ/p85α) (Homo sapiens (Human), UniProt O00329). In words: PI3Kδ scintillation proximity assay. Format: biochemical. As to conditions: recombinant human PI3Kδ 3.4 nM, 20 μM PIP2, 2 μM ATP, 120 min, room temperature. An excerpt:
Example C. PI3Kδ Scintillation Proximity Assay Materials: [γ-^33P]ATP (10 mCi/mL) and Wheat Germ Agglutinin (WGA) YSi SPA Scintillation Beads was purchased from Perkin Elmer (Waltham, Mass.). Lipid kinase substrate, D-myo-Phosphatidylinositol 4,5-bisphosphate (PtdIns(4,5)P2)D (+)-sn-1,2-di-O-octanoylglyceryl, 3-O-phospho linked (PIP2), CAS 204858-53-7, was purchased from Echelon Biosciences (Salt Lake City, Utah). PI3Kδ (p110δ/p85α) Recombinant Human Protein was purchased from Eurofins (St Charles, Mo.). ATP, MgCl2, DTT, EDTA, MOPS and CHAPS were purchased from Sigma Aldrich (St. Louis, Mo.). The kinase reaction was conducted in polystyrene 384-well Greiner Bio-one white plate from Thermo Fisher Scientific in a final volume of 25 μL. Inhibitors were first diluted serially in DMSO and added to the plate wells before the addition of other reaction components. The final concentration of DMSO in the assay was 2%. The PI3Kδ assay was carried out at room temperature in 20 mM MOPS, pH 6.7, 10 mM MgCl2, 5 mM DTT and CHAPS 0.03%. Reactions were initiated by the addition of ATP, the final reaction mixture consisted of 20 μM PIP2, 2 μM ATP, 0.5 μCi [γ-^33P] ATP, 3.4 nM PI3Kδ. Reactions were incubated for 120 min and terminated by the addition of 40 μL SPA beads suspended in quench buffer: 163 mM potassium phosphate pH 7.8, 20% glycerol, 25 mM EDTA. The final concentration of SPA beads is 1.0 mg/mL. After the plate sealing, plates were shaken overnight at room temperature and centrifuged at 1500 rpm for 10 min, the radioactivity of the product was determined by scintillation counting on Topcount (PerkinElmer). IC50 determination was performed by fitting the curve of percent of the solvent control activity versus the log of the inhibitor concentration using the GraphPad Prism 6.0 software.

Assay [1] deals with Phosphorylated Ribosomal Protein S6 (RPS6) in THP-1 cells. In words: THP-1 RPS6 ELISA assay. Format: cell-based, Human. Conditions: Homo sapiens. How it is done:
Example A. THP-1 RPS6 ELISA Assay
To measure the Phosphorylated Ribosomal Protein S6 (RPS6) in cell lysates, THP-1 cells (Human Acute Monocytic Leukemia) are purchased from ATCC (Manassas, Va.) and maintained in RPMI with 10% FBS (Gibco/Life Technologies, Carlsbad, Calif.). For the assay, THP-1 cells are serum starved overnight in RPMI, then plated in RPMI (2×10^5 cells/well in 90 μL) into 96-well flat-bottom tissue culture treated plates (Corning, Corning, N.Y.), in the presence or absence of a concentration range of test compounds. Covered plates are incubated for 2 hours at 37° C., 5% CO2 then treated with or without 10 nM MCP-1 (MYBioSource, San Diego, Calif.) for 15 minutes at 37° C., 5% CO2. Plates are centrifuged at 1600 RPM and supernatants are removed. Cells are lysed in Lysis Buffer (Cell Signaling, Danvers, Mass.) with Protease Inhibitor (Calbiochem/EMD, Germany), PMSF (Sigma, St Louis Mo.), HALTS (Thermo Fisher, Rockford, Ill.) for 30 min on wet ice. Cell lysates are frozen at −80° C. before testing. The lysates are tested in the Human/Mouse/Rat Phospho-RPS6 ELISA (R&D Systems, Inc. Minn, Minn.). The plate is measured using a microplate reader (SpectraMax M5—Molecular Devices, LLC Sunnyvale, Calif.) set to 450 nm with a wavelength correction of 540. IC50 determination is performed by fitting the curve of inhibitor percent inhibition versus the log of the inhibitor concentration using the GraphPad Prism 5.0 software.

Setting [2] is: THP-1, serum starved THP-1 cells, 2 hours compound, 10 nM MCP-1 for 15 minutes, Phospho-RPS6 ELISA, read-out: PI3Kγ_THP1_RPS6_ELISA IC50.

As usually defined, the IC50 is the point on the concentration scale where inhibition reaches its midpoint.

Where a name gives a salt, the structure may show the parent alone. Read-outs that look alike come from different tables or passages of the source.

Sequence of PI3Kδ (p110δ/p85α) (O00329 whole entry): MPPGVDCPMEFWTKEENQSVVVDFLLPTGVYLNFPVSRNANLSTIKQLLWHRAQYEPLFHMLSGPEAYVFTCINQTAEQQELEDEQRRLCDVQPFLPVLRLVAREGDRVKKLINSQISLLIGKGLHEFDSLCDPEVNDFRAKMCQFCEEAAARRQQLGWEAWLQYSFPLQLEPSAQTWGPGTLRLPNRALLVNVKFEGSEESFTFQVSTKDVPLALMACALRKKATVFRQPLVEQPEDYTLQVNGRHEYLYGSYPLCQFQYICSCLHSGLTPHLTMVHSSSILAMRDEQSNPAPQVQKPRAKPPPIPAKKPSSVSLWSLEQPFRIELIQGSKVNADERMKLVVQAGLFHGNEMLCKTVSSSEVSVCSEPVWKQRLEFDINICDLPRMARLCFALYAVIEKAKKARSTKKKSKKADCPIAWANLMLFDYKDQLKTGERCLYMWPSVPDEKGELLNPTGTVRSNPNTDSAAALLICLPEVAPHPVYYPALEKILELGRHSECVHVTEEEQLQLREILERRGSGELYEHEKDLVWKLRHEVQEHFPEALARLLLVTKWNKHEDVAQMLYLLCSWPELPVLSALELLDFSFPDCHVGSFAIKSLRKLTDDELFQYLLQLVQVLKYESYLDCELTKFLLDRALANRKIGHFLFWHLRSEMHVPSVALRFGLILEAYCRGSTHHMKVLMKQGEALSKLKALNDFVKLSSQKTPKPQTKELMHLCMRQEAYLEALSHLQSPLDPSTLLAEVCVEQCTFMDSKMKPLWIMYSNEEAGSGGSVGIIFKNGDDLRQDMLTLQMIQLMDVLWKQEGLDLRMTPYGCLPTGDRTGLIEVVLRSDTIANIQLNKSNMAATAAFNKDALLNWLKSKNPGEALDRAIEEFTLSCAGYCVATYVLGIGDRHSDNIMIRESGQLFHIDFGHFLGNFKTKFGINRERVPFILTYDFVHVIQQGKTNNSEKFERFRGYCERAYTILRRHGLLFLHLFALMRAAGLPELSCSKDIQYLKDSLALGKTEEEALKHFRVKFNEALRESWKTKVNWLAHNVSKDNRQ
Sequence of PI3Kδ (p110δ/p85α) (P27986 whole entry partner): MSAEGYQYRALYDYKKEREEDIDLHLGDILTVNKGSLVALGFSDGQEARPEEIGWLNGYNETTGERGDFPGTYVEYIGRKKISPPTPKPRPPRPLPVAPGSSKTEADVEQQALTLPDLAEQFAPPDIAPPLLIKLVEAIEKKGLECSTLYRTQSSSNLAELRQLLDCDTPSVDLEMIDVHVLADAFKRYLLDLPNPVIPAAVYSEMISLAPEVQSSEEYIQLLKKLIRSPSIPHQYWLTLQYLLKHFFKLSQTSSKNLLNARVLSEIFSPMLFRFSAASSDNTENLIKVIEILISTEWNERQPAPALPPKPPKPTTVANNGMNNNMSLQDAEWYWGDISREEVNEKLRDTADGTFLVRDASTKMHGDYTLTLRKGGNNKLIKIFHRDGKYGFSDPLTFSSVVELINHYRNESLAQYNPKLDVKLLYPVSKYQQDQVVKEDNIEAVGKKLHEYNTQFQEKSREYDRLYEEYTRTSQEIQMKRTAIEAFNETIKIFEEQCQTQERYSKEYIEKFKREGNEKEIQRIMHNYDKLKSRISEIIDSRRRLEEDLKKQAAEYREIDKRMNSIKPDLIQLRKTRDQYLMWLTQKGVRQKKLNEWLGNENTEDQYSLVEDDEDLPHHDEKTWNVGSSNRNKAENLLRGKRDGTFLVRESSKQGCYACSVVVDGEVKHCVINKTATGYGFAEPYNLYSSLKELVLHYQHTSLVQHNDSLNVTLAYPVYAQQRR

Regarding `Cc1[nH]c(-c2cc(-c3cc4c(c(S(C)(=O)=O)c3)C(=O)N([C@@H](C)C3CC3)C4)ccn2)nc1C(=O)N1CCC1` [Example 7j, (S)-5-(2-(5-(Azetidine-1-carbonyl)-4-methyl-1H-imidazol-2-yl)pyridin-4-yl)-2-(1-cyclopropylethyl)-7-(methylsulfonyl)isoindolin-1-one, trifluoroacetate salt], the 50% inhibitory concentration (IC50) was under 100 nM on PI3Kγ (p110γ); 100 to 500 nM at PI3Kδ (p110δ/p85α); 100 to 500 nM in assay [1] (THP-1, read-out: PI3Kγ_THP1_RPS6_ELISA IC50 (nM)).

For the molecule `Cc1[nH]c(-c2cc(-c3cc4c(c(S(C)(=O)=O)c3)C(=O)N([C@@H](C)C3CC3)C4)ccn2)nc1C(=O)NC1CCC1` [Example 7k, (S)-N-Cyclobutyl-2-(4-(2-(1-cyclopropylethyl)-7-(methylsulfonyl)-1-oxoisoindolin-5-yl)pyridin-2-yl)-4-methyl-1H-imidazole-5-carboxamide, trifluoroacetate salt], the IC50 at PI3Kγ (p110γ) is under 100 nM; on PI3Kδ (p110δ/p85α) it was 100 to 500 nM; in assay [1] (setting [2]), 100 to 500 nM.

On to `Cc1[nH]c(-c2cc(-c3cc4c(c(S(C)(=O)=O)c3)C(=O)N([C@@H](C)C3CC3)C4)ccn2)nc1C(=O)NC1CN(C)C1` [Example 7m, (S)-2-(4-(2-(1-Cyclopropylethyl)-7-(methylsulfonyl)-1-oxoisoindolin-5-yl)pyridin-2-yl)-4-methyl-N-(1-methylazetidin-3-yl)-1H-imidazole-5-carboxamide, trifluoroacetate salt], for which the 50% inhibitory concentration (IC50) was under 100 nM at PI3Kγ (p110γ), 500 to 2000 nM on PI3Kδ (p110δ/p85α) and 500 to 1000 nM in assay [1] (setting [2]).

Regarding `Cc1[nH]c(-c2cc(-c3cc4c(c(S(C)(=O)=O)c3)C(=O)N([C@@H](C)C3CC3)C4)ccn2)nc1C(=O)N(C)C1CCOCC1` [Example 7o, (S)-2-(4-(2-(1-Cyclopropylethyl)-7-(methylsulfonyl)-1-oxoisoindolin-5-yl)pyridin-2-yl)-N,4-dimethyl-N-(tetrahydro-2H-pyran-4-yl)-1H-imidazole-5-carboxamide, trifluoroacetate salt], the IC50 at PI3Kγ (p110γ) was under 100 nM; at PI3Kδ (p110δ/p85α), 100 to 500 nM; in assay [1] (setting [2]), 100 to 500 nM.

Consider `Cc1[nH]c(-c2cc(-c3cc4c(c(S(C)(=O)=O)c3)C(=O)N([C@@H](C)C3CC3)C4)ccn2)nc1C(=O)N1CC2(COC2)C1` [Example 7p, (S)-2-(1-Cyclopropylethyl)-5-(2-(4-methyl-5-(2-oxa-6-azaspiro[3.3]heptane-6-carbonyl)-1H-imidazol-2-yl)pyridin-4-yl)-7-(methylsulfonyl)isoindolin-1-one, trifluoroacetate salt], for which the values for the IC50 (at PI3Kγ (p110γ); at PI3Kδ (p110δ/p85α); in assay [1] (setting [2])) were under 100 nM, 500 to 2000 nM and 100 to 500 nM, respectively.

For `Cc1[nH]c(-c2cc(-c3cc4c(c(S(C)(=O)=O)c3)C(=O)N([C@@H](C)C3CC3)C4)ccn2)nc1C(N)=O` [Example 7q, (S)-2-(4-(2-(1-Cyclopropylethyl)-7-(methylsulfonyl)-1-oxoisoindolin-5-yl)pyridin-2-yl)-4-methyl-1H-imidazole-5-carboxamide, trifluoroacetate salt], the results for the 50% inhibitory concentration (IC50) (on PI3Kγ (p110γ); at PI3Kδ (p110δ/p85α); in assay [1] (setting [2])) were under 100 nM, 500 to 2000 nM and over 1000 nM, respectively.

Turning to `CCNC(=O)c1nc(-c2cc(-c3cc4c(c(S(C)(=O)=O)c3)C(=O)N([C@@H](C)C3CC3)C4)ccn2)[nH]c1C` [Example 7r, (S)-2-(4-(2-(1-Cyclopropylethyl)-7-(methylsulfonyl)-1-oxoisoindolin-5-yl)pyridin-2-yl)-N-ethyl-4-methyl-1H-imidazole-5-carboxamide, trifluoroacetate salt], the half-maximal inhibitory concentration (IC50) on PI3Kγ (p110γ) is under 100 nM; on PI3Kδ (p110δ/p85α), 500 to 2000 nM; in assay [1] (setting [2]), 100 to 500 nM.

For `CCN(C)C(=O)c1nc(-c2cc(-c3cc4c(c(S(C)(=O)=O)c3)C(=O)N([C@@H](C)C3CC3)C4)ccn2)[nH]c1C` [Example 7s, (S)-2-(4-(2-(1-Cyclopropylethyl)-7-(methylsulfonyl)-1-oxoisoindolin-5-yl)pyridin-2-yl)-N-ethyl-N,4-dimethyl-1H-imidazole-5-carboxamide, trifluoroacetate salt], the IC50 on PI3Kγ (p110γ) was under 100 nM; at PI3Kδ (p110δ/p85α), 500 to 2000 nM; in assay [1] (setting [2]) it was 500 to 1000 nM.

Take `Cc1[nH]c(-c2cc(-c3cc4c(c(S(C)(=O)=O)c3)C(=O)N([C@@H](C)C3CC3)C4)ccn2)nc1C(=O)N(C)C(C)C` [Example 7t, (S)-2-(4-(2-(1-Cyclopropylethyl)-7-(methylsulfonyl)-1-oxoisoindolin-5-yl)pyridin-2-yl)-N-isopropyl-N,4-dimethyl-1H-imidazole-5-carboxamide, trifluoroacetate salt]: the IC50 is under 100 nM at PI3Kγ (p110γ), 500 to 2000 nM on PI3Kδ (p110δ/p85α) and 100 to 500 nM in assay [1] (setting [2]).

Take `Cc1[nH]c(-c2cc(-c3cc4c(c(S(C)(=O)=O)c3)C(=O)N([C@@H](C)C3CC3)C4)ccn2)nc1C(=O)N(C)C1CCC1` [Example 7u, (S)-N-Cyclobutyl-2-(4-(2-(1-cyclopropylethyl)-7-(methylsulfonyl)-1-oxoisoindolin-5-yl)pyridin-2-yl)-N,4-dimethyl-1H-imidazole-5-carboxamide, trifluoroacetate salt]: the IC50 at PI3Kγ (p110γ) was under 100 nM; on PI3Kδ (p110δ/p85α), 500 to 2000 nM; in assay [1] (setting [2]) it was 100 to 500 nM.

In the case of `C[C@@H](C1CC1)N1Cc2cc(-c3cnnc(-c4ccn[nH]4)c3)cc(S(C)(=O)=O)c2C1=O` [Example 9, (S)-5-(6-(1H-Pyrazol-5-yl)pyridazin-4-yl)-2-(1-cyclopropylethyl)-7-(methylsulfonyl)isoindolin-1-one Trifluoroacetate Salt], the IC50 on PI3Kγ (p110γ) was 100 to 500 nM; on PI3Kδ (p110δ/p85α), over 2000 nM; in assay [1] (setting [2]), over 1000 nM.

In the case of `Cc1cc(-c2cc(-c3cc4c(c(S(C)(=O)=O)c3)C(=O)N([C@@H](C)C3CC3)C4)cnn2)[nH]n1` [Example 10, (S)-2-(1-Cyclopropylethyl)-5-(6-(3-methyl-1H-pyrazol-5-yl)pyridazin-4-yl)-7-(methylsulfonyl)isoindolin-1-one, trifluoroacetate salt], the concentration for half-maximal inhibition (IC50) is 100 to 500 nM on PI3Kγ (p110γ), over 2000 nM at PI3Kδ (p110δ/p85α) and over 1000 nM in assay [1] (setting [2]).
